# Reference: patent US7396837B2, “Antitumoral analogs of lamellarins” (Pharma Mar, S.A.U., priority 2002, dated 2008)
# Read-outs that look alike come from different tables or passages of the source.
# Assays:
# Type in all cases: cell-based
# [1] = tested on: K-562; assay: SRB colorimetric cell growth inhibition assay, K-562; settings: for GI50: GI=growth inhibition, read-out: GI50 K-562; for CC50: LC=cell killing (cytotoxic effect); for IC (TGI): TGI=total growth inhibition (cytostatic effect), read-out: TGI K-562
# Summary of the method: (§1)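 Growth inhibition (GI), cytostatic total growth inhibition (TGI) and cytotoxic cell-kill (LC) parameters were calculated from SRB-stained cultures held under constant compound exposure, triplicates averaged.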
# [2] = tested on: A-549; assay: SRB colorimetric cell growth inhibition assay, A-549; settings: Homo sapiens; for GI50: GI=growth inhibition, read-out: GI50 A-549; for CC50: LC=cell killing (cytotoxic effect); for IC (TGI): TGI=total growth inhibition (cytostatic effect), read-out: TGI A-549
# Summary of the method: as §1
# [3] = tested on: SK-MEL-28; assay: SRB colorimetric cell growth inhibition assay, SK-MEL-28; settings: for GI50: GI=growth inhibition, read-out: GI50 MEL-28; for CC50: cell killing (cytotoxic effect); for IC (TGI): total growth inhibition (cytostatic effect), read-out: TGI MEL-28
# Summary of the method: as §1
# [4] = tested on: HT-29; assay: SRB colorimetric cell growth inhibition assay, HT-29; settings: for GI50: GI=growth inhibition, read-out: GI50 HT-29; for CC50: LC=cell killing (cytotoxic effect); for IC (TGI): TGI=total growth inhibition (cytostatic effect), read-out: TGI HT-29
# Summary of the method: as §1
# [5] = tested on: LoVo; assay: SRB colorimetric cell growth inhibition assay, LoVo; settings: Homo sapiens, LoVo; for GI50: GI=growth inhibition, read-out: GI50 LOVO; for CC50: LC=cell killing (cytotoxic effect); for IC (TGI): TGI=total growth inhibition (cytostatic effect), read-out: TGI LOVO
# Summary of the method: as §1
# [6] = tested on: LoVo-Dox; assay: SRB colorimetric cell growth inhibition assay, LoVo-Dox (MDR); settings: Homo sapiens; for GI50: GI=growth inhibition, read-out: GI50 LOVO-DOX; for CC50: LC=cell killing (cytotoxic effect); for IC (TGI): TGI=total growth inhibition (cytostatic effect), read-out: TGI LOVO-DOX
# Summary of the method: as §1
# [7] = tested on: DU-145; assay: SRB colorimetric cell growth inhibition assay, DU-145; settings: for GI50: GI=growth inhibition, read-out: GI50 DU-145; for CC50: cell killing (cytotoxic effect)
# Summary of the method: as §1
# [8] = tested on: LNCaP; assay: SRB colorimetric cell growth inhibition assay, LNCaP; settings: Homo sapiens, LNCaP; for GI50: GI=growth inhibition, read-out: GI50 LN-caP; for CC50: cell killing (cytotoxic effect); for IC (TGI): total growth inhibition (cytostatic effect), read-out: TGI LN-caP
# Summary of the method: as §1
# [9] = tested on: SK-BR-3; assay: SRB colorimetric cell growth inhibition assay, SK-BR-3; settings: for GI50: GI=growth inhibition, read-out: GI50 SK-BR-3; for CC50: cell killing (cytotoxic effect); for IC (TGI): total growth inhibition (cytostatic effect), read-out: TGI SK-BR-3
# Summary of the method: as §1
# [10] = tested on: IGROV; assay: SRB colorimetric cell growth inhibition assay, IGROV; settings: IGROV; for GI50: GI=growth inhibition, read-out: GI50 IGROV; for CC50: cell killing (cytotoxic effect)
# Summary of the method: as §1
# [11] = tested on: IGROV-ET; assay: SRB colorimetric cell growth inhibition assay, IGROV-ET (ET-743 resistant); settings: Homo sapiens; for GI50: GI=growth inhibition, read-out: GI50 IGROV-ET; for CC50: cell killing (cytotoxic effect); for IC (TGI): total growth inhibition (cytostatic effect), read-out: TGI IGROV-ET
# Summary of the method: as §1
# [12] = tested on: PANC-1; assay: SRB colorimetric cell growth inhibition assay, PANC-1; settings: Homo sapiens; for GI50: GI=growth inhibition, read-out: GI50 PANC-1; for CC50: LC=cell killing (cytotoxic effect); for IC (TGI): TGI=total growth inhibition (cytostatic effect), read-out: TGI PANC-1
# Summary of the method: as §1
# [13] = tested on: SKOV-3; assay: SRB colorimetric cell growth inhibition assay, SKOV-3; settings: Homo sapiens; for GI50: SK-OV-3, SKOV-3, GI=growth inhibition, read-out: GI50 SKOV-3; for IC (TGI): total growth inhibition (cytostatic effect), read-out: TGI SKOV-3
# Summary of the method: (§2)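 Sulforhodamine B colorimetric assay of cell growth and viability, mean ± SD of triplicate wells. Parameters derived: GI (growth inhibition), TGI (total growth inhibition, cytostatic) and LC (cell killing, cytotoxic).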
# [14] = SRB colorimetric cell growth inhibition assay, H-MEC-1; settings: human
# Summary of the method: as §2
# [15] = tested on: H-MEC-1; assay: as above; settings: Homo sapiens, HMEC-1, H-MEC-1; for GI50: GI=growth inhibition, read-out: GI50 H-MEC-1; for IC (TGI): total growth inhibition (cytostatic effect), read-out: TGI H-MEC-1
# Summary of the method: as §2
# [16] = Homo sapiens, SK-MEL-28, MEL-28
smiles,measurement,setting,value
COc1cc(-c2c3c4cc(OC)c(OC(=O)[C@@H]5CCCN5)cc4oc(=O)c3n3ccc4c(OC(=O)[C@@H]5CCCN5)c(OC)c(OC)cc4c23)ccc1OC(=O)[C@@H]1CCCN1 [Compound 30],GI50,"[1]; Homo sapiens, K562, K-562",204 nM
same,CC50,"[1]; Homo sapiens, K562, K-562, read-out: LC50 K-562",8600 nM
same,IC (TGI),"[1]; Homo sapiens, K562, K-562",1100 nM
same,GI50,"[2]; A549, A-549",341 nM
same,CC50,"[2]; A549, A-549, read-out: LC50 A-549",6640 nM
same,IC (TGI),"[2]; A549, A-549",1270 nM
same,GI50,[3]; [16],251 nM
same,CC50,"[3]; Homo sapiens, SK-MEL-28, MEL-28, read-out: LC50 MEL-28",4420 nM
same,IC (TGI),[3]; [16],1080 nM
same,GI50,"[4]; Homo sapiens, HT-29, HT-29",2810 nM
same,CC50,"[4]; Homo sapiens, HT-29, HT-29, read-out: LC50 HT-29",8600 nM
same,IC (TGI),"[4]; Homo sapiens, HT-29, HT-29",5060 nM
same,GI50,[5],383 nM
same,CC50,[5]; read-out: LC50 LOVO,3770 nM
same,IC (TGI),[5],1060 nM
same,GI50,[6]; LOVO-DOX,683 nM
same,CC50,"[6]; LOVO-DOX, read-out: LC50 LOVO-DOX",5220 nM
same,IC (TGI),[6]; LOVO-DOX,1930 nM
same,GI50,"[7]; Homo sapiens, DU-145, DU-145",53.8 nM
same,CC50,"[7]; Homo sapiens, DU-145, DU-145, read-out: LC50 DU-145",3840 nM
same,IC (TGI),"[7]; Homo sapiens, DU-145, DU-145, total growth inhibition (cytostatic effect), read-out: TGI DU-145",265 nM
same,GI50,[8]; LN-caP,275 nM
same,CC50,"[8]; LN-caP, read-out: LC50 LN-caP",4900 nM
same,IC (TGI),[8]; LN-caP,1270 nM
same,GI50,"[9]; Homo sapiens, SK-BR-3, SK-BR-3",498 nM
same,CC50,"[9]; Homo sapiens, SK-BR-3, SK-BR-3, read-out: LC50 SK-BR-3",6390 nM
same,IC (TGI),"[9]; Homo sapiens, SK-BR-3, SK-BR-3",1610 nM
same,GI50,[10]; Homo sapiens,350 nM
same,CC50,"[10]; Homo sapiens, read-out: LC50 IGROV",6990 nM
same,IC (TGI),"[10]; Homo sapiens, total growth inhibition (cytostatic effect), read-out: TGI IGROV",1470 nM
same,GI50,[11]; IGROV-ET,450 nM
same,CC50,"[11]; IGROV-ET, read-out: LC50 IGROV-ET",6630 nM
same,IC (TGI),[11]; IGROV-ET,1830 nM
same,GI50,"[12]; PANC-1, PANC-1",805 nM
same,CC50,"[12]; PANC-1, PANC-1, read-out: LC50 PANC-1",5640 nM
same,IC (TGI),"[12]; PANC-1, PANC-1",2180 nM
same,GI50,[13],348 nM
same,LC50 (concentration causing 50% net cell killing),"[13]; SK-OV-3, SKOV-3, cell killing (cytotoxic effect), read-out: LC50 SKOV-3",5360 nM
same,IC (TGI),"[13]; SK-OV-3, SKOV-3",1240 nM
same,LC50 (concentration giving 50% net cell killing),"[14]; H-MEC-1 cells, H-MEC-1, cell killing (cytotoxic effect), read-out: LC50 H-MEC-1",840 nM
same,GI50,[15],70.5 nM
same,IC (TGI),[15],241 nM
COc1cc(-c2c3n(c4c(=O)oc5cc(OC(=O)[C@@H](N)C(C)C)c(OC)cc5c24)CCc2cc(OC(=O)[C@@H](N)C(C)C)c(OC)cc2-3)ccc1OC(=O)[C@@H](N)C(C)C [Compound 37],IC (TGI),"[1]; Homo sapiens, K562, K-562",1970 nM
same,CC50,"[1]; Homo sapiens, K562, read-out: LC50 K-562, K-562",7530 nM
same,GI50,[1]; K-562,12.4 nM
same,GI50,"[2]; A549, A-549",1720 nM
same,IC (TGI),"[2]; A549, A-549",3800 nM
same,CC50,"[2]; A549, read-out: LC50 A-549, A-549",8380 nM
same,IC (TGI),[3]; [16],2680 nM
same,CC50,"[3]; Homo sapiens, SK-MEL-28, read-out: LC50 MEL-28, MEL-28",7950 nM
same,GI50,[3]; MEL-28,623 nM
same,GI50,[4]; HT-29,91.2 nM
same,IC (TGI),"[4]; Homo sapiens, HT-29, HT-29",2000 nM
same,CC50,"[4]; Homo sapiens, HT-29, read-out: LC50 HT-29, HT-29",10900 nM
same,CC50,"[5]; read-out: LC50 LOVO, LOVO",10800 nM
same,GI50,[5],1790 nM
same,IC (TGI),[5],4400 nM
same,GI50,[6]; LOVO-DOX,2100 nM
same,IC (TGI),[6]; LOVO-DOX,4600 nM
same,CC50,"[6]; read-out: LC50 LOVO-DOX, LOVO-DOX",10100 nM
same,GI50,[7]; DU-145,67.7 nM
same,TGI DU-145,"[7]; DU-145, total growth inhibition (cytostatic effect)",1.55E−06 Molar
same,CC50,"[7]; Homo sapiens, DU-145, read-out: LC50 DU-145, DU-145",5620 nM
same,GI50,[8]; LN-caP,593 nM
same,IC (TGI),[8]; LN-caP,2180 nM
same,CC50,"[8]; read-out: LC50 LN-caP, LN-caP",5050 nM
same,IC (TGI),"[9]; Homo sapiens, SK-BR-3, SK-BR-3",2120 nM
same,CC50,"[9]; Homo sapiens, SK-BR-3, read-out: LC50 SK-BR-3, SK-BR-3",10600 nM
same,GI50,[9]; SK-BR-3,57.6 nM
same,CC50,"[10]; Homo sapiens, read-out: LC50 IGROV, IGROV",5890 nM
same,GI50,[10],577 nM
same,TGI IGROV,[10]; total growth inhibition (cytostatic effect),2.17E−06 Molar
same,GI50,[11]; IGROV-ET,359 nM
same,IC (TGI),[11]; IGROV-ET,2110 nM
same,CC50,"[11]; read-out: LC50 IGROV-ET, IGROV-ET",8040 nM
same,GI50,"[12]; PANC-1, PANC-1",2150 nM
same,IC (TGI),"[12]; PANC-1, PANC-1",11000 nM
same,CC50,"[12]; PANC-1, read-out: LC50 PANC-1, PANC-1",11000 nM
same,GI50,[13],1620 nM
same,LC50 (concentration causing 50% net cell killing),"[13]; SK-OV-3, read-out: LC50 SKOV-3",7870 nM
same,IC (TGI),"[13]; SK-OV-3, SKOV-3",3580 nM
same,LC50 (concentration giving 50% net cell killing),[14],4730 nM
same,GI50,[15],97.4 nM
same,IC (TGI),[15],1260 nM
